Values of other authors, collected in patent publication US20060246505A1, “Modulation of the synthesis of insulin” (priority 2003, published 2006).

Test system: signalling pathways that trigger transcription
Details: glucose-triggered resynthesis of insulin in beta cells; prior-art statement

## C[S+]([O-])c1ccc(-c2nc(-c3ccncc3)c(-c3ccc(F)cc3)[nH]2)cc1 (stereo not shown) [SB 203580]
  inhibition of the signalling pathways that trigger transcription (resynthesis of insulin): can be inhibited
